pEC50, pIC50: −log10 of the molar value. Where two headings read alike, the source gives them in different places.

Data set [1] in a line: Stability in aqueous solution, pH 7.4. The class given is physicochemical. The conditions noted are these: for half-life: pH 7.4, read-out: Stability pH 7.4 T1/2; for stability in aqueous solution: result in words. As for the experimental part: Compounds 2d, 2e, 2f, 2g, 2j, 2aa, 5a, 5d, 5e, 5f, 5ab and 6b were subjected to in vitro DMPK testing. […] The other three (2d, 2j and 2aa) were not retained for further investigation due to poor stability (T1/2 at pH 7.4: 13, 107 and 76 min, Table 1, entries 1, 3 and 4 respectively). One obvious aspect contributing to observed stability is the propensity for PTL derivatives of this type to undergo a retro-amination (reverse-Michael-type mechanism), indeed this reverse reaction is often claimed as a pro-drug mode of action.[29a],[33] […] It is a reasonable assertion that activity observed for these unstable compounds could well be ascribed to free PTL generated rapidly in the assay.

Data set [2] in a line: Microsomal stability assay (mouse). Conditions: for Mouse microsomal stability: mouse microsomes; for microsomal CLint: mouse, liver microsomes.
A short description of data set [3]: Caco-2 permeability assay. It counts as in vitro ADME. The conditions noted are these: for Papp A→B / Papp B→A / efflux ratio: human; for Papp A→B / Papp B→A: Caco-2; for Papp A→B: pH 7.4, A to B; for Papp B→A: pH 7.4, B to A; for efflux ratio: Caco-2, pH 7.4.
Data set [4] deals with MEC1 CLL cell line. Nature of the data set: alamarBlue assay, in vitro antileukaemic activity against MEC1 CLL cell line. The class given is cell-based. The conditions noted are these: for LipE pEC50–clog P: MEC1 cell line pEC50 minus calculated log P; for EC50: read-out: pEC50 (converted). The source says:
Defective p53-signalling increases genomic instability and drives tumour progression. A high frequency of p53 inactivation is found in relapsed, treatment-resistant, high risk CLL.[30] […] Owing to resource availability a subset of up to ten of these compounds was prioritised for further investigation. Compounds 2d, 2e, 2j, 2aa, 5a, 5d, 5e, 5f, 5ab and 6b were selected on the basis of reasons including ease of synthetic access, diversity across the chemical space probed and novelty. Those prepared under conditions (i)Scheme 1 (2d, 5a and 6b) were available on a scale and in a purity to directly permit follow-up studies, whereas compounds prepared under conditions (ii)Scheme 1 were prepared on a small scale so were resynthesised. These seven compounds (2e, 2j, 2aa, 5d, 5e, 5f and 5ab) were isolated on >30 mg scale in high purity and progressed to more following studies.
Following the identification of 5f as the most promising drug-like derivative of PTL from the aforementioned parallel/high-throughput screening, the anti-leukaemic activity of 5f was tested once more and compared directly with that of PTL (1) and DMAPT (2a), which serve as comparators and positive controls.
Amine 7 was successfully prepared as follows: 4-Piperidinecarboxylic acid was N-Boc protected to deliver 8 in 92% yield.[43] In order to confidently assign the NMR spectra of compound 8 J-MOD, HSQC and ^1H–^1H COSY were helpful, particularly in establishing that a broad resonance in the proton-decoupled ^13C NMR spectrum, centred on 42.8 ppm, corresponds to the ring-carbons bonded to nitrogen. The carboxylic acid of 8 was converted to the corresponding ethyl-3-keto-propanoate 9 in 24% yield. Conversion of 9 to the N-Boc protected congener 10, was achieved by treatment with acetamidine hydrochloride and potassium carbonate, furnishing 10 in 77% yield. Treatment with trifluoroacetic acid delivered desired compound 7 in 99% yield for the Boc-deprotection step (scale 200 mg, 17% over four linear steps). Thus, evidencing accessibility of amine 7 and with it in hand, it was timely to probe any activity arising from the amine alone. MEC1 sensitivity to 1, 5f and 7 was compared in parallel using the alamarBlue® assay (Fig. 6). […] A pre-peer-reviewed preprint of this article was deposited and may be viewed elsewhere.[44]

Data set [5] can be described thus: Hepatocyte stability assay (mouse). It counts as in vitro ADME. Conditions: mouse hepatocytes; for half-life: read-out: Hepatocyte stability (mouse) T1/2.
A short description of data set [6]: Murine oral (PO) PK study. The class given is in vivo. Conditions: for Tmax / bioavailability / Cmax / half-life: in vivo, mouse; for bioavailability: read-out: Mouse PK (PO) F%; for half-life: PO 10 mg kg^–1, as worded in text. Here is the method:
The in vivo oral bioavailability of compounds 5a and 5f was compared in a murine PK study at 10 mg kg^–1 (Fig. 4(a)ii and (b)ii and Table 2). In keeping with the intravenous findings, the murine PO half-life of 5f was twice as long as 5a (1.0 versus 0.5 hours, Table 2) and the Cmax attained by 5f was approximately 40% higher than that achieved by 5a (404 versus 283 ng mL^–1). […] Compound 5f was therefore identified as a promising potential new agent with desirable pharmacological properties towards a therapy for drug-resistant CLL.

The nature of data set [7]: Murine intravenous PK study. The class given is in vivo. Conditions: IV 1 mg kg^–1; for Vd / clearance / half-life: blood, mouse; for Vd: read-out: Mouse PK (IV) VSS; for clearance: read-out: Mouse PK (IV) Cl; for half-life: read-out: Mouse PK (IV) T1/2 (converted). As for the experimental part: In order to determine 5a and 5f are suitable for use as pharmaceutical agents their pharmacokinetic (PK) parameters were next probed. A murine intravenous PK study of compounds 5a and 5f at 1.0 mg kg^–1 was conducted and their concentrations in blood were measured with time (Fig. 4(a)i and (b)i and Table 2).

Data set [8] concerns the target hERG K+ channel (Homo sapiens, UniProt Q12809). Put plainly: hERG liability assay, IonWorks patch clamp electrophysiology. It counts as cell-based. Conditions: for pIC50: eight-point curves, maximum test concentration 100 μM; for inhibition at 100 µM: read-out: hERG inhibition at top test concentration. As for the experimental part: Early toxicological screening is an important step in derisking drug discovery programmes and is increasingly accessible.[39]
Three PTL derivatives (2a, 5a and 5f) were tested for inhibition of the hERG K^+ channel (against cisapride as a positive control) using IonWorks patch clamp electrophysiology. […] Eight-point concentration-response curves were generated using three-fold serial dilutions from a maximum final test concentration of 100 μM, results are summarised in Fig. S6. ^†

The mark [9] stands for this setting: first of two columns headed A to B.
The mark [10] stands for this setting: second of two columns headed A to B.
The mark [11] stands for this setting: MEC1 cell line, alamarBlue assay, library screen, read-out: EC50 ave.
The mark [12] stands for this setting: Homo sapiens, MEC1, MEC1 cell line, alamarBlue assay, library screen, read-out: EC50 ave.
[13] abbreviates: Homo sapiens, MEC1, MEC1 cell line.
[14] abbreviates: Homo sapiens, MEC1, MEC1 cells, alamarBlue, direct comparison of 5f with PTL and DMAPT, n = 5, read-out: EC50.

hERG K+ channel, sequence (Q12809 whole entry): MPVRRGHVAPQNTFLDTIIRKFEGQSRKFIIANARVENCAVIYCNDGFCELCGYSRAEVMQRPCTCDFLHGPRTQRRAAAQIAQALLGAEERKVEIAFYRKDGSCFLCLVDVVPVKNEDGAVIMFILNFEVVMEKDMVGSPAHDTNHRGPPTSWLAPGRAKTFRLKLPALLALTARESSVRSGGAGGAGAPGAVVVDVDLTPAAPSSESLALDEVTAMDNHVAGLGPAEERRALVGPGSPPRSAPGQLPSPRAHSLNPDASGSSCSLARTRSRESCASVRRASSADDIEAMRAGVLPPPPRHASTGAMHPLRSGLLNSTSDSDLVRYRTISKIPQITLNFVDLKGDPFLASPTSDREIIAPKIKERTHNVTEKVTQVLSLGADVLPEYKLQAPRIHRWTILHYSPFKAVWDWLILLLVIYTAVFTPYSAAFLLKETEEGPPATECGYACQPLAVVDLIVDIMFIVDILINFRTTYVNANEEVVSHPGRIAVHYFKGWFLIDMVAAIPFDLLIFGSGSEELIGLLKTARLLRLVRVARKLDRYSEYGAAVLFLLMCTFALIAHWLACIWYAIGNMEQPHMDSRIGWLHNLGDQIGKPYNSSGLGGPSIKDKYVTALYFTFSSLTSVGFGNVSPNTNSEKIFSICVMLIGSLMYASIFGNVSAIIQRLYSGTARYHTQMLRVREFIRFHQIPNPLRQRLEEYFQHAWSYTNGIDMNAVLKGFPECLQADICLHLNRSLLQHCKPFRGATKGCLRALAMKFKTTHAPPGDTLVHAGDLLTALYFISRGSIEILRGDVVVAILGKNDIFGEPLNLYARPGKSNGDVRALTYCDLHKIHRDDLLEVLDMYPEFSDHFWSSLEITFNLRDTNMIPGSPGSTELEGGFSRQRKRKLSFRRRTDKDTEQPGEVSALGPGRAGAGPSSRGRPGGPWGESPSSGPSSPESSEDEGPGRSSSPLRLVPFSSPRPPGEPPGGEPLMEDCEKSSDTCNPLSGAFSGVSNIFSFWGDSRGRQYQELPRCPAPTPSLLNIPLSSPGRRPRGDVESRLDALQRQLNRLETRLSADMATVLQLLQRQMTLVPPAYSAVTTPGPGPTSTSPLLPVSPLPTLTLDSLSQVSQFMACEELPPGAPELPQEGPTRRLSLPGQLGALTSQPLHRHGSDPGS

In the case of `C/C1=C\CC[C@@]2(C)O[C@@H]2[C@H]2OC(=O)[C@@H](CN[C@@H](Cc3ccccc3)C(=O)O)[C@@H]2CC1` [C00010], the half-life in data set [1] is more than 2 h. This molecule yielded a Mouse microsomal stability in data set [2] (setting [9]) of 9. The same molecule came in with a Mouse microsomal stability in data set [2] (setting [10]) of 160. In data set [3], the apical-to-basolateral permeability (Papp A→B) came out at 1.5 ×10⁻⁶ cm/s, the apparent permeability from basolateral to apical (Papp B→A) turned out to be 4.2 ×10⁻⁶ cm/s and the “Caco-2 pH 7.4 Efflux ratio” value came out at 2.7. Also, the “LipE pEC50–clog P” value in data set [4] is 3.66. Also, the negative-log EC50 (pEC50) in data set [4] (setting [11]) was 4.87. Moreover, in data set [5], the “Hepatocyte stability (mouse) CLint” value is 16.0 μL min^–1 per million cells and the half-life came to 1.47 h.
Regarding `C/C1=C\CC[C@@]2(C)O[C@@H]2[C@H]2OC(=O)[C@@H](CN3CCCC3)[C@@H]2CC1` [C00005], the half-life in data set [1] was more than 2 h. In addition, the Mouse microsomal stability in data set [2] (setting [9]) is on record as 19. The molecule further came in with a Mouse microsomal stability in data set [2] (setting [10]) of 75. Further, in data set [3], the efflux ratio is 1, the apical-to-basolateral permeability (Papp A→B) worked out at 15.9 ×10⁻⁶ cm/s and the basolateral-to-apical permeability (Papp B→A) is 16.2 ×10⁻⁶ cm/s. Besides, the negative-log EC50 (pEC50) in data set [4] (setting [12]) was 5.11. In addition, the “LipE pEC50–clog P” value in data set [4] is 2.35. Also, in data set [5], the “Hepatocyte stability (mouse) CLint” value is given as 22.0 μL min^–1 per million cells and the half-life is 1.08 h.
For the molecule `C/C1=C\CC[C@@]2(C)O[C@@H]2[C@H]2OC(=O)[C@@H](CN3CCC(c4cc(O)nc(C)n4)CC3)[C@@H]2CC1` [C00008], the half-life in data set [1] is more than 2 h. For the same molecule, the Mouse microsomal stability in data set [2] (setting [9]) worked out at 18. Also, the Mouse microsomal stability in data set [2] (setting [10]) was found to be 77. Besides, in data set [3], the apical-to-basolateral permeability (Papp A→B) came to 2.7 ×10⁻⁶ cm/s, the Papp B→A stood at 2.8 ×10⁻⁶ cm/s and the “Caco-2 pH 7.4 Efflux ratio” value is reported as 1.1. In data set [4], the “LipE pEC50–clog P” value was 3.69. Besides, the pEC50 in data set [4] (setting [11]) was 5.11. In data set [5], the “Hepatocyte stability (mouse) CLint” value was 22.0 μL min^–1 per million cells and the half-life turned out to be 1.07 h.
For the molecule `C/C1=C\CC[C@@]2(C)O[C@@H]2[C@H]2OC(=O)[C@@H](CN3CCC(c4cc(O)nc(C)n4)CC3)[C@@H]2CC1` [C00012], in data set [6] (PO 10 mg kg^–1), the “Mouse PK (PO) Cmax” value came out at 404 ng mL^–1, the “Mouse PK (PO) UC (0-inf)” value is recorded as 1696 ng h mL^–1, the time of peak concentration (Tmax) is 1 h and the bioavailability came out at 58.5%. The pEC50 in data set [4] (setting [11]) was 5.11. Also, in data set [7], the “Mouse PK (IV) Cl” value is 58 mL min^–1 kg^–1, the “Mouse PK (IV) T1/2” value is reported as 1.14 h, the “Mouse PK (IV) UC (0-inf)” value was 289 ng h mL^–1 and the Vd came out at 4.62 L/kg.
As for `CC1=CCCC2(C)OC2C2OC(=O)C(CN3CCCC3)C2CC1` (stereo not shown) [Compound 5a], the “stability in aqueous solution” value in data set [1] is reported as “greater than two hours”. Also, in data set [6] (PO 10 mg kg^–1), the “Mouse PK (PO) UC (0-inf)” value is 711 ng h mL^–1 and the highest concentration (Cmax) amounted to 283 ng/mL. The half-life in data set [6] was 0.5 h. In data set [8], this molecule showed a pIC50 of less than 4.00. For the same molecule, in data set [8] (human), the inhibition at 100 µM came to 45%. For the same molecule, the intrinsic metabolic clearance (microsomal CLint) in data set [2] came to 19 µL/min/mg. Further, the efflux ratio in data set [3] was 1. Also, the negative-log EC50 (pEC50) in data set [4] (setting [12]) is more than 4.82. In addition, the EC50 in data set [4] (setting [13]) is 7.76 µM. Moreover, in data set [4], the “LipE pEC50–clog P” value was 2.35. The pEC50 in data set [4] (setting [11]) was 5.11. In addition, in data set [7], the “Mouse PK (IV) UC (0-inf)” value is 80.5 ng h mL^–1, the clearance worked out at 207 mL/min/kg and the half-life was 0.66 h.
For `C/C1=C\CC[C@@]2(C)O[C@@H]2[C@H]2OC(=O)[C@@H](CN3CCCC3)[C@@H]2CC1` [C00011], in data set [6] (PO 10 mg kg^–1), the “Mouse PK (PO) UC (0-inf)” value is listed as 711 ng h mL^–1, the Cmax stood at 283 ng/mL, the Tmax was determined as 0.5 h and the bioavailability was determined as 95.8%. In data set [7], the “Mouse PK (IV) UC (0-inf)” value is listed as 80.5 ng h mL^–1, the clearance stood at 207 mL/min/kg, the half-life is 0.66 h and the Vd turned out to be 11.6 L/kg.
Turning to `C/C1=C\CC[C@@]2(C)O[C@@H]2[C@H]2OC(=O)[C@@H](CN3CCC(c4cc(O)nc(C)n4)CC3)[C@@H]2CC1` [Compound 5f], the “stability in aqueous solution” value in data set [1] is given as “greater than two hours”. For the same molecule, in data set [6] (PO 10 mg kg^–1), the “Mouse PK (PO) UC (0-inf)” value came to 1696 ng h mL^–1 and the Cmax worked out at 404 ng/mL. Further, in data set [6], the half-life was 1 h. Moreover, the hERG liability flag entry in data set [8] was “inactive”. Moreover, in data set [8] (human), the inhibition at 100 µM came out at 24% and the negative-log IC50 (pIC50) is less than 4.00. In addition, the microsomal CLint in data set [2] worked out at 18 µL/min/mg. In addition, the efflux ratio in data set [3] was found to be 1.1. In data set [4] (setting [12]), the negative-log EC50 (pEC50) is more than 4.82. Further, in data set [4] (setting [13]), the EC50 was 7.76 µM. Also, the pEC50 in data set [4] (Homo sapiens, MEC1, MEC1 cells, alamarBlue, 1, 5f and 7 compared in parallel, CalcuSyn, read-out: EC50) is 5.37. Also, the pEC50 in data set [4] (setting [14]) is 5.35. Besides, the “LipE pEC50–clog P” value in data set [4] was 3.69. For the same molecule, the negative-log EC50 (pEC50) in data set [4] (setting [11]) was 5.11. In addition, in data set [4] (MEC1 cells, pre-treatment with N-acetylcysteine (NAC)), the “effect of NAC pre-treatment on activity” value is listed as “abrogated activity”. In data set [7], the “Mouse PK (IV) UC (0-inf)” value turned out to be 289 ng h mL^–1, the clearance is 58 mL/min/kg and the half-life is 1.14 h.
For the molecule `C/C1=C\CC[C@@]2(C)O[C@@H]2[C@H]2OC(=O)[C@@H](CN(C)C)[C@@H]2CC1` [DMAPT, dimethyl amino-PTL, reference compound], the negative-log IC50 (pIC50) in data set [8] is less than 4.00. For the same molecule, in data set [8] (human), the inhibition at 100 µM was found to be 40%. Further, the negative logarithm of the EC50 (pEC50) in data set [4] (setting [14]) was 5.25. Also, the “LipE pEC50–clog P” value in data set [4] is recorded as 3.19.

The record behind these values is publication PMC7478165, “Derivatisation of parthenolide to address chemoresistant chronic lymphocytic leukaemia” (MedChemComm, 2019).
